Data reported in ChEMBL document CHEMBL1212923, “Synthesis and in vivo evaluation of phenethylpiperazine amides: selective 5-hydroxytryptamine(2A) receptor antagonists for the treatment of insomnia” (J Med Chem, 2010).
Active and inactive are the calls of the source. The calls are words filed in the database; no cut-off is given here.

Columns and labels:
[1] = molecular target: T1, 5-hydroxytryptamine receptor 2C (Homo sapiens, UniProt P28335); format: cell-based, HEK293
T1 sequence (P28335 whole entry): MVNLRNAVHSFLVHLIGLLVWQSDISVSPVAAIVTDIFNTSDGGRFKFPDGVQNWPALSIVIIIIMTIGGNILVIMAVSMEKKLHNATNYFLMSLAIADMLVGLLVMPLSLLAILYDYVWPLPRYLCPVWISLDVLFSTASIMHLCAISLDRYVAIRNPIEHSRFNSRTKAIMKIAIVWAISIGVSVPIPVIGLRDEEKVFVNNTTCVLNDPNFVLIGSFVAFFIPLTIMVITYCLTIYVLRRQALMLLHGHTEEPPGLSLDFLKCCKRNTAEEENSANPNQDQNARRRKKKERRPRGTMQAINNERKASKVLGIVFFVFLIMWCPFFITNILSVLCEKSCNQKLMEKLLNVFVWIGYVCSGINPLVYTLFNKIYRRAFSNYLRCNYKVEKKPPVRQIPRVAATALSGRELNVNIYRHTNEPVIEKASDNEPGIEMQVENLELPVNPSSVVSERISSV

[2] = molecular target: 5-hydroxytryptamine receptor 2A (Homo sapiens, UniProt P28223); assay: biochemical
5-hydroxytryptamine receptor 2A, sequence (P28223 whole entry): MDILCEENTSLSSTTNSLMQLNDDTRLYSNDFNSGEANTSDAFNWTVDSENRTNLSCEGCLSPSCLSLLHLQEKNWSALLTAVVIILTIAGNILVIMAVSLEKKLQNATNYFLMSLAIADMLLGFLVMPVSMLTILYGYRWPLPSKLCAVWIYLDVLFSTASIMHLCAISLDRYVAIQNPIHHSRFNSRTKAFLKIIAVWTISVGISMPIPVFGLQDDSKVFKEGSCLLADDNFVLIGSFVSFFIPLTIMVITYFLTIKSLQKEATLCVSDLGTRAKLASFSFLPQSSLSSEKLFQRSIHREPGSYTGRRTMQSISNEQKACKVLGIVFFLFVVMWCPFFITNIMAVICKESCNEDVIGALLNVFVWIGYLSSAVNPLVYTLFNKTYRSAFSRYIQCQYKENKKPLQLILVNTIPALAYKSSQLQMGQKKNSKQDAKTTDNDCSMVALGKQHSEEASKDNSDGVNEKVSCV
Description: Displacement of [125I]DOI from human recombinant 5HT2A receptor expressed in HEK293 cells after 1 hr by scintillation counting

[3] = Drug level in Sprague-Dawley rat brain at 3 mg/kg, po after 0.75 hrs; format: ADME, organism-based; parameters: dose 3 mg/kg, route oral; conditions: read-out: Drug uptake
[4] = Drug level in Sprague-Dawley rat plasma at 3 mg/kg, po after 0.75 hrs; format: ADME, organism-based; parameters: dose 3 mg/kg, route oral; conditions: read-out: Drug uptake
[5] = Ratio of drug level in brain to plasma in Sprague-Dawley rat at 3 mg/kg, po after 0.75 hrs; format: ADME, organism-based; parameters: dose 3 mg/kg, route oral
[6] = Cmax in Sprague-Dawley rat at 10 mg/kg, po; format: ADME, organism-based; parameters: dose 10 mg/kg, route oral; conditions: in vivo
[7] = AUClast in Sprague-Dawley rat at 10 mg/kg, po; format: ADME, organism-based; parameters: time 0 - last, dose 10 mg/kg, route oral; conditions: plasma
[8] = Half life in Sprague-Dawley rat at 10 mg/kg, po; format: ADME, organism-based; parameters: dose 10 mg/kg, route oral; conditions: in vivo
[9] = Total clearance in Sprague-Dawley rat at 2 mg/kg, iv; format: ADME, organism-based; parameters: dose 2 mg/kg, route intravenous; conditions: in vivo
Rattus norvegicus [10] = assay: Volume of distribution at steady state in Sprague-Dawley rat at 10 mg/kg, po; format: ADME, organism-based; parameters: dose 10 mg/kg, route oral; conditions: in vivo
[11] = Oral bioavailability in Sprague-Dawley rat at 10 mg/kg relative to 2 mg/kg, iv dose; format: ADME, organism-based; conditions: in vivo
Rattus norvegicus [12] = assay: Hepatic blood flow in Sprague-Dawley rat at 10 mg/kg, po; format: ADME, organism-based, Liver; parameters: dose 10 mg/kg, route oral; conditions: in vivo
[13] = Half life in rat liver microsomes; format: ADME, Microsome
hERG (KCNH2) = hERG (KCNH2) (Homo sapiens, UniProt Q12809); assay: Inhibition of human ERG at 3 uM by patch clamp electrophysiology assay
hERG (KCNH2), sequence (Q12809 whole entry): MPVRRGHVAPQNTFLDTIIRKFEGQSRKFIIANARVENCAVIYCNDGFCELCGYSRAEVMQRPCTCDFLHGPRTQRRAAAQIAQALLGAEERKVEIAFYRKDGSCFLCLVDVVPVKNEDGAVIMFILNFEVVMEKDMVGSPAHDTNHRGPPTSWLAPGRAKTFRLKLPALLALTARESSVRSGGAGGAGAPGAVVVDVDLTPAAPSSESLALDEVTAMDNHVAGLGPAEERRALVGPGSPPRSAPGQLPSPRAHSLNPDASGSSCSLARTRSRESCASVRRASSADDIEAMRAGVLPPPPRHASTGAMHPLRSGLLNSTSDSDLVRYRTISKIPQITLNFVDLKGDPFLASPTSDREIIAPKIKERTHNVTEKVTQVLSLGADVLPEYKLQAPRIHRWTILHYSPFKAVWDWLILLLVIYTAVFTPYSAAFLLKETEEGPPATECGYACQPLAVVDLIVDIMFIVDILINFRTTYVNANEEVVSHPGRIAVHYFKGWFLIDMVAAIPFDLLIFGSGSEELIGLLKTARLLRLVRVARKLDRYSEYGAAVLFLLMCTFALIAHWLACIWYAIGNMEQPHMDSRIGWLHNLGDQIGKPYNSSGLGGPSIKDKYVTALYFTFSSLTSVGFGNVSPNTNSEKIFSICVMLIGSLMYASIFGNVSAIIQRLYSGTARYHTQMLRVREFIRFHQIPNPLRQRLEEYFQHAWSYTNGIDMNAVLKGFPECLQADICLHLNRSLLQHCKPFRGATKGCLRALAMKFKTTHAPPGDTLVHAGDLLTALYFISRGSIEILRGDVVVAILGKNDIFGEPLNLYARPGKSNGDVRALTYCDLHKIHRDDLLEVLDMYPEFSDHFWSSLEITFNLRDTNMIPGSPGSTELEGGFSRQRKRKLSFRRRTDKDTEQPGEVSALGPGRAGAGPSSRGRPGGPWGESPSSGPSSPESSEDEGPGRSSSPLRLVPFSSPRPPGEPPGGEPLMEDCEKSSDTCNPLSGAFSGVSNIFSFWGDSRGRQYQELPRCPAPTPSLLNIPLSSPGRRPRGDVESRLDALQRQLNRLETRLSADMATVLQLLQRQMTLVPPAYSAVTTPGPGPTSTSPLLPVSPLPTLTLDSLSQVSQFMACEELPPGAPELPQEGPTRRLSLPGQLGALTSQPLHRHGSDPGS

Rattus norvegicus [14] = assay: Inhibition of DOI-induced hypolocomotion in po dosed Sprague-Dawley rat administered 25 mins before DOI challenge measured after 10 mins; format: functional, organism-based
Rattus norvegicus [15] = assay: Inhibition of DOI-induced hypolocomotion in Sprague-Dawley rat at 1 mg/kg, po administered 25 mins before DOI challenge measured after 10 mins; format: functional
[16] = Drug level in Sprague-Dawley rat brain at 0.3 mg/kg, po after 0.75 hrs; format: ADME, organism-based; parameters: dose 0.3 mg/kg, route oral; conditions: read-out: Drug uptake
[17] = Drug level in Sprague-Dawley rat plasma at 0.3 mg/kg, po after 0.75 hrs; format: ADME, organism-based; parameters: dose 0.3 mg/kg, route oral; conditions: read-out: Drug uptake
Rattus norvegicus [18] = assay: Inhibition of DOI-induced hypolocomotion in Sprague-Dawley rat at 3 mg/kg, po administered 25 mins before DOI challenge measured after 10 mins; format: functional
Cytochrome P450 1A2 = molecular target: T2, Cytochrome P450 1A2 (Homo sapiens, UniProt P05177); assay: Inhibition of CYP1A2 in human liver microsomes; format: ADME, Microsome
T2 sequence (P05177 whole entry): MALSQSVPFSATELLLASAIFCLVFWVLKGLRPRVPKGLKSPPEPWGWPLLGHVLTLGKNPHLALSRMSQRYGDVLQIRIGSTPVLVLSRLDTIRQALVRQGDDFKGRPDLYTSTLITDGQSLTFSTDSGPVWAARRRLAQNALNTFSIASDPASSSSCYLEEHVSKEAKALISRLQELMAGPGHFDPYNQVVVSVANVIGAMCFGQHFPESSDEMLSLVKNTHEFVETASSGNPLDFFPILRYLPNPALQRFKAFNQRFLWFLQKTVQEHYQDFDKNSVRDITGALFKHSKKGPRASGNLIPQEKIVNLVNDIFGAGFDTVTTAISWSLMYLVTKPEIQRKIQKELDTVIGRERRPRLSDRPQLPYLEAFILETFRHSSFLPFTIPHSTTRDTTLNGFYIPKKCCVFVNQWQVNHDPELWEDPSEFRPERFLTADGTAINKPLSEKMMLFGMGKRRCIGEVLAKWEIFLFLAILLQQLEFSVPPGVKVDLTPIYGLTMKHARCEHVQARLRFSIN

Cytochrome P450 2C9 = Cytochrome P450 2C9 (Homo sapiens, UniProt P11712); assay: Inhibition of CYP2C9 in human liver microsomes; format: ADME, Microsome
Cytochrome P450 2C9, sequence (P11712 whole entry): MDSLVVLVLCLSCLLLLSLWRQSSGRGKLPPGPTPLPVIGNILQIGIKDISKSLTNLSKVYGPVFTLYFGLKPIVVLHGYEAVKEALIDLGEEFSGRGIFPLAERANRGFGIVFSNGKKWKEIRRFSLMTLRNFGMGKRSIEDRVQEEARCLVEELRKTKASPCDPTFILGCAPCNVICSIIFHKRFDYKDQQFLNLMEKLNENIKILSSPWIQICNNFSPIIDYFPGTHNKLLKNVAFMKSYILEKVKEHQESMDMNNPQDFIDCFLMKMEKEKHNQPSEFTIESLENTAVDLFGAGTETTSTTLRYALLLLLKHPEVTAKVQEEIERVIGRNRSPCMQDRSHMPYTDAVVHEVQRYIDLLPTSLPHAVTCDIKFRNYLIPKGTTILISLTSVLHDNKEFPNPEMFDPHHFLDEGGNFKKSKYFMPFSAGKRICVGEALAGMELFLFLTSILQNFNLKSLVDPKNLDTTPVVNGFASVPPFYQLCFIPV

Cytochrome P450 2C19 = Cytochrome P450 2C19 (Homo sapiens, UniProt P33261); assay: Inhibition of CYP2C19 in human liver microsomes; format: ADME, Microsome
Cytochrome P450 2C19, sequence (P33261 whole entry): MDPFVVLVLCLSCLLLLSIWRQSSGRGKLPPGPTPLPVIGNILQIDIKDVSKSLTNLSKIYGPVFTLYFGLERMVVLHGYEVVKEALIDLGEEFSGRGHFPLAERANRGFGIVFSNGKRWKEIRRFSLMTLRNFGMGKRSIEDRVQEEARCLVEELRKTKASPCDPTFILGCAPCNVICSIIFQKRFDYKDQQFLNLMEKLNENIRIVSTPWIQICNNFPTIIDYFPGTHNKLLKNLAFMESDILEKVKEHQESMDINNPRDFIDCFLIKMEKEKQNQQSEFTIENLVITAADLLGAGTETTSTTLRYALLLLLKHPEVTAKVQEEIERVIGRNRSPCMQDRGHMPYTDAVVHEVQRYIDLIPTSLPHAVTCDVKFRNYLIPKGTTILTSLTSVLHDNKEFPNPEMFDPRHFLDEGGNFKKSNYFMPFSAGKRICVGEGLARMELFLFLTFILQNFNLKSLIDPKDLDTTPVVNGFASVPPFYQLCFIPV

Cytochrome P450 2D6 = Cytochrome P450 2D6 (Homo sapiens, UniProt P10635); assay: Inhibition of CYP2D6 in human liver microsomes; format: ADME, Microsome
Cytochrome P450 2D6, sequence (P10635 whole entry): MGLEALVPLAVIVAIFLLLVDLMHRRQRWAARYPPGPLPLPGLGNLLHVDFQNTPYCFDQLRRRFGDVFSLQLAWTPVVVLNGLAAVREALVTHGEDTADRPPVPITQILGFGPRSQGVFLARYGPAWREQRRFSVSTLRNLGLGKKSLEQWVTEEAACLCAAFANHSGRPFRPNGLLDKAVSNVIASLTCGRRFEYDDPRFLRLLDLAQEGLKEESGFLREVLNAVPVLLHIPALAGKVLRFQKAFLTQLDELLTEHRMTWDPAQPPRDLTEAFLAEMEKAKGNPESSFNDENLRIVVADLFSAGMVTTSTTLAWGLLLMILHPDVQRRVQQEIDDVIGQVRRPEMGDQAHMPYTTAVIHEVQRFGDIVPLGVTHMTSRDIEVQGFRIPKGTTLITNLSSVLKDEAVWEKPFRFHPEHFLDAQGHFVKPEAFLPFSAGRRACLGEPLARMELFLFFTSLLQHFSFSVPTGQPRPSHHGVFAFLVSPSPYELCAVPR

Cytochrome P450 3A4 = Cytochrome P450 3A4 (Homo sapiens, UniProt P08684); assay: Inhibition of CYP3A4 in human liver microsomes; format: ADME, Microsome
Cytochrome P450 3A4, sequence (P08684 whole entry): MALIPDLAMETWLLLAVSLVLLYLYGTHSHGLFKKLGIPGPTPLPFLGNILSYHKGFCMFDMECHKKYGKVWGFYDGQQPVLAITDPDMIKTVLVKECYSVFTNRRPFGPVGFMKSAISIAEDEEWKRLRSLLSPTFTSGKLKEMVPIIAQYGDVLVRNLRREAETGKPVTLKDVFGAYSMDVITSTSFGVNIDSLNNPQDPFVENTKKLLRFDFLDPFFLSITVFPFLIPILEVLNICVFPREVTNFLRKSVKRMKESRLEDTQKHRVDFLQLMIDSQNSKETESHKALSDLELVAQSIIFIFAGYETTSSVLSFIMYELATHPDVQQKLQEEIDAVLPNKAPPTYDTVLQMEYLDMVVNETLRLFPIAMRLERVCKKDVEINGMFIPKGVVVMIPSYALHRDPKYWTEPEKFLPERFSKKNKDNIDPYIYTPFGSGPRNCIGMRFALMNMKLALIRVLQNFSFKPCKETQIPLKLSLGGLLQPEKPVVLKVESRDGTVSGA

Rattus norvegicus [19] = assay: Effect on behavioral activity in Sprague-Dawley rat assessed as increase in deep sleep at 0.1 mg/kg, po after 1 hr; format: functional, organism-based; parameters: dose 0.1 mg/kg
Rattus norvegicus [20] = assay: Effect on behavioral activity in Sprague-Dawley rat assessed as increase in deep sleep at 0.1 mg/kg, po after 3 to 4 hrs; format: functional, organism-based; parameters: dose 0.1 mg/kg
Rattus norvegicus [21] = assay: Effect on behavioral activity in po dosed Sprague-Dawley rat assessed as increase in sleep consolidation after 5 hrs; format: functional, organism-based

Ki [1] [nM] | Ki [2] [nM] | SMILES | further results
> 10000 | 88 | O=C(Nc1[nH]ncc1Br)N1CCN(CCc2ccc(F)cc2)CC1 | –
> 10000 | 865 | Cn1cc(Br)c(C(=O)N2CCN(CC(=O)c3ccc(C(F)(F)F)cc3)CC2)n1 | –
5610 | 6000 | Cn1cc(Br)c(C(=O)N2CCN(CC(=O)c3ccc(OC(F)(F)F)cc3)CC2)n1 | –
9800 | 270 | Cn1cc(Br)c(C(=O)N2CCN(CC(=O)c3ccccc3F)CC2)n1 | –
> 10000 | 18 | Cn1cc(Br)c(C(=O)N2CCN(CCc3ccccc3F)CC2)n1 | –
> 10000 | 542 | Cn1cc(Br)c(C(=O)N2CCN(CCc3cccc(F)c3)CC2)n1 | –
> 10000 | 368 | Cn1cc(Br)c(C(=O)N2CCN(CC(O)c3ccc(F)cc3)CC2)n1 (centres undefined) | –
> 10000 | 8.5 | Cc1cc(C(=O)N2CCN(CC(=O)c3ccc(F)cc3)CC2)nn1C | –
110 | 0.51 | COc1ccc(NC(=O)Nc2ccc(F)cc2F)cc1-c1c(Br)cnn1C [NELOTANSERIN] | concentration at 0.75 h [3]: 320 ng/mL; concentration at 0.75 h [4]: 488 ng/mL; Kp at 0.75 h [5]: 0.65
4150 | 3.6 | Cn1cc(Br)c(C(=O)N2CCN(CCc3ccc(F)cc3)CC2)n1 | Cmax [6]: 48 ng/mL; AUC(0-t) [7]: 91 ng·h/mL; half-life [8]: 84 min; clearance [9]: 155 mL/min/kg; Vdss (Rattus norvegicus [10]): 8.1 L/kg; bioavailability [11]: 9%; LBF (Rattus norvegicus [12]): 220%; half-life [13]: 14 min; inhibition at 3 µM (hERG (KCNH2)): 79%; EC50 (Rattus norvegicus [14]): 3 mg/kg; concentration at 0.75 h [3]: 16.8 ng/mL; concentration at 0.75 h [4]: 8.3 ng/mL; Kp at 0.75 h [5]: 2.02
1420 | 37 | Cn1ccc(C(=O)N2CCN(CC(=O)c3ccc(F)cc3)CC2)n1 | –
> 10000 | 408 | COc1ccc(CCN2CCN(C(=O)c3nn(C)cc3Br)CC2)cc1 | –
645 | 0.48 | N#Cc1c[nH]c2c(C(=O)N3CCN(CCc4ccc(F)cc4)CC3)cccc12 [PRUVANSERIN] | –
3870 | 4.5 | Cn1cc(I)c(C(=O)N2CCN(CC(=O)c3ccc(F)cc3)CC2)n1 | –
2120 | – | Cn1cc(Br)c(C(=O)N2CCN(CC(=O)c3ccc(F)cc3)CC2)n1 | Cmax [6]: 1260 ng/mL; AUC(0-t) [7]: 1450 ng·h/mL; half-life [8]: 126 min; clearance [9]: 66.7 mL/min/kg; Vdss (Rattus norvegicus [10]): 1.5 L/kg; bioavailability [11]: 59%; half-life [13]: > 60 min; ED50 (Rattus norvegicus [14]; Rattus norvegicus, Sprague-Dawley, po): 0.3 mg/kg; inhibition in vivo at 1 mg/kg (Rattus norvegicus [15]): 75%; concentration at 0.75 h [16]: 20.8 ng/mL; concentration at 0.75 h [17]: 17.8 ng/mL; inhibition in vivo at 3 mg/kg (Rattus norvegicus [18]): 65%; inhibition (INH) (Cytochrome P450 1A2): Not Active; inhibition (INH) (Cytochrome P450 2C9): Not Active; inhibition (INH) (Cytochrome P450 2C19): Not Active; inhibition (INH) (Cytochrome P450 2D6): Not Active; inhibition (INH) (Cytochrome P450 3A4): Not Active; Activity (Rattus norvegicus [19]): Active; Activity (Rattus norvegicus [20]): Active; Activity (Rattus norvegicus [21]): Dose-dependent effect
> 10000 | 68 | Cn1cc(Br)c(C(=O)N2CCN(CCc3ccccc3)CC2)n1 | –
> 10000 | 70 | Cn1cc(Br)c(C(=O)N2CCN(CC(=O)c3ccc(F)cc3F)CC2)n1 | –
> 10000 | 155 | COc1ccc(NC(=O)N2CCN(CCc3ccc(F)cc3)CC2)cc1-c1c(Cl)cnn1C | –
3870 | 28 | Cn1cc(C(F)(F)F)c(C(=O)N2CCN(CC(=O)c3ccc(F)cc3)CC2)n1 | –
2820 | 1.1 | Cn1cc(Br)c(C(=O)N2CCN(CCc3ccc(F)cc3F)CC2)n1 | half-life [13]: 9 min; inhibition at 3 µM (hERG (KCNH2)): 80%
> 10000 | 9.3 | Cc1cc(C(=O)N2CCN(CC(=O)c3ccc(F)cc3)CC2)nn1C(C)(C)C | –
> 10000 | 34 | Cn1cc(Br)c(C(=O)N2CCN(CCc3ccc(Cl)cc3)CC2)n1 | –
> 10000 | 36 | Cc1cc(C(=O)N2CCN(CC(=O)c3ccc(F)cc3)CC2)[nH]n1 | –
2750 | 18.5 | O=C(CN1CCN(C(=O)c2n[nH]cc2Cl)CC1)c1ccc(F)cc1 | –
3570 | 4.6 | Cc1[nH]nc(C(=O)N2CCN(CC(=O)c3ccc(F)cc3)CC2)c1Br | –
2930 | 4.6 | Cc1c(Br)c(C(=O)N2CCN(CC(=O)c3ccc(F)cc3)CC2)nn1C | half-life [13]: 29 min; inhibition at 3 µM (hERG (KCNH2)): 15%; inhibition in vivo at 1 mg/kg (Rattus norvegicus [15]): 22%; inhibition in vivo at 3 mg/kg (Rattus norvegicus [18]): 65%
3710 | 11 | Cc1cc(C(=O)N2CCN(CC(=O)c3ccc(F)cc3)CC2)nn1-c1ccccc1 | –
> 10000 | 2.6 | CCn1cc(Cl)c(C(=O)N2CCN(CC(=O)c3ccc(F)cc3)CC2)n1 | inhibition in vivo at 3 mg/kg (Rattus norvegicus [18]): 54%
8600 | 2470 | CO/N=C(/CN1CCN(C(=O)c2nn(C)cc2Br)CC1)c1ccc(F)cc1 | –

SMILES | Ki [1] [nM] | Ki [2] [nM] | further results
Cc1nc2n(c(=O)c1CCN1CCN(C(=O)c3nn(C)cc3Br)CC1)CCCC2 | > 10000 | > 10000 | –
Cn1cc(Br)c(C(=O)N2CCN(CCN3C(=O)c4ccccc4C3=O)CC2)n1 | > 10000 | > 10000 | –
